This is an account of results in patent US20040171680A1, “Treating Syndrome X with substituted tetralins and indanes” (priority 2002, published 2004).

Assay [1] addresses T1, PPARα (Rattus norvegicus, UniProt P37230).
T1 construct: H4IIE rat hepatoma cell line was obtained from ATCC; host or cells: H4IIE rat hepatoma cells
T1 sequence (P37230 1-468): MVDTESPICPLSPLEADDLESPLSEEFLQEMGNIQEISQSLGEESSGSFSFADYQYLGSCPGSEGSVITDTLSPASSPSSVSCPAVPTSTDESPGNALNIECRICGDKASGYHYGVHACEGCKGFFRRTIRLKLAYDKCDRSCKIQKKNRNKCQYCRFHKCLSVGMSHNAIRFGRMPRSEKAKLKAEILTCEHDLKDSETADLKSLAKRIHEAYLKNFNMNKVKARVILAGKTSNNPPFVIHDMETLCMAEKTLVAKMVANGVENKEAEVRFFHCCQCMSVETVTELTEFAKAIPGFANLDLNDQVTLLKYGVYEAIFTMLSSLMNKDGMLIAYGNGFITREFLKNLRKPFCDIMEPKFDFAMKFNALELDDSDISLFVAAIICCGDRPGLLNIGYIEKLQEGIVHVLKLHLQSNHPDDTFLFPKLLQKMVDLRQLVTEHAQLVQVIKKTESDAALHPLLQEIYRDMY
Nature of the assay: HD bDNA Assay (HD gene induction). The assay is classed as cell-based. How it is done:
HD bDNA Assay H4IIE rat hepatoma cell line was obtained from ATCC. Cells were cultured in 175 cm^2 tissue culture flask or seeded in 96-well plate with (high serum content, 10% fetal bovine serum and 10% calf serum) culture medium and maintained at 37° C. and 5% CO2 throughout study. Twenty-four hours after the initial seeding of the 96-well plate by hand (approximate 100,000/well), the HD gene induction assay was initiated. Media was removed and replaced with 100 ul of low serum culture media (5% charcoal/dextran treated calf serum) containing vehicle (DMSO) or test compounds or standard. Cells returned to incubator for 24 hours culture. At the termination of the challenge, 50 ul lysis buffer with HD gene specific CE, LE, BL probes was added directly into each well to initiate the bDNA HD mRNA assay. The branched DNA assay was performed according to the manufacturer's protocol (Bayer Diagnostics; Emeryville. Calif.). At the end of the assay, the luminescence was quantitated in Dynex MLX microtiter plate luminometer. EC50's were determined by non-linear regression with a sigmoidal fit utilizing Graphpad Prism.

For assay [2], the system named is db/db mice. Nature of the assay: Oral dosing in female db/db mice. It is filed as in vivo. The settings on record: Mus musculus, 240 h, 1.0 mpk, 10 day oral dosing, % change compared to vehicle. How it is done: The compound was prepared as suspensions in 0.5% hydroxypropylmethylcellulose (Dow Chemical, Midland, Mich.). The dosing volume was 10 mL/kg of body weight. […] Body weight was measured in the mornings on Day 1, prior to dosing, and on Day 12 before bleeding. 18-24 hours after the final dose for each group, the mice were anesthetized with CO2/O2 (70:30) and bled by retro-orbital sinus puncture into micro-tubes containing clog activator and then put in ice. The serum samples were prepared by centrifugation. Serum glucose and triglycerides were determined by using COBAS Mira Plus blood chemistry analyzer (Roche Diagnostics, N.J.). Serum insulin was measured by using ALPCO insulin ELISA kit.
Statistical analysis was performed using the program Prism (Graphpad, Monrovia, Calif.) and performing one-way ANOVA with a Dunnet's multiple comparison test.

In assay [3] the target is T2, PPARδ (Homo sapiens, UniProt Q03181).
T2 construct: a Gal4-Luciferase reporter is co-transfected
T2 sequence (Q03181 171-441 limits assumed): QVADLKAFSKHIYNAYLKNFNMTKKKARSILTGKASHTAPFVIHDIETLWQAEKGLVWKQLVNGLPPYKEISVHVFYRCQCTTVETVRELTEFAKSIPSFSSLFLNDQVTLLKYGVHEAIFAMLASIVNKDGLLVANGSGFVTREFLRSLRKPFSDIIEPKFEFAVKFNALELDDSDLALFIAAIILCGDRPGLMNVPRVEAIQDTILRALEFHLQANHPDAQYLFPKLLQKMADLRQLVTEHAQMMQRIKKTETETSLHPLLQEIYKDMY
The assay can be described thus: Transfection Assay for PPARδ Receptors (PPAR-Gal4 / Gal4-Luciferase reporter in HEK293 cells). To be noted: fold induction; PPARδ standard: FI = 36.1. The assay is classed as cell-based. Here is the method: Transfection Assay for PPARδ Receptors
HEK293 cells were grown in DMEM/F-12 Media supplemented with 10% FBS and glutamine (GIBCOBRL). The cells were co-transfected with DNA for PPAR-Gal4 receptor and Gal4-Luciferase Reporter using the DMRIE-C Reagent. On the following day, the DNA-containing medium were replaced with 5% Charcoal treated FBS growth medium. After six hours, cells were seeded in 96 well plate and incubated at 37° C. in CO2 incubator overnight. Cells were challenged by test compounds and incubated for 24 hours at 37° C. in 5% CO2 incubator. Luciferase activity was assayed using the Steady-Glo Luciferase Assay Kit from Promega. DMRIE-C Reagent was purchased from GIBCO Cat. No.10459-014. OPTI-MEM I Reduced Serum Medium was purchased from GIBCO Cat. No. 31985. Steady-Glo Luciferase Assay Kit was obtained from Promega Part# E254B.
For orientation: Reporter assays use an easily measured gene product as a stand-in for the process of interest.

[4] abbreviates: in section F, target not named there, values match the PPARα column, read-out: EC50.
Where [5] appears, read: H4IIE rat hepatoma cells, 24 hours, read-out: PPARα EC50.

Like-named read-outs stand apart in the source and are kept apart here.

As a reminder, the EC50 is the concentration needed to bring the measured effect to its halfway point. `CCN(C(=O)Nc1ccc(OC(F)(F)F)cc1)C1CCc2cc(SC(C)(C)C(=O)O)ccc2C1` (stereo not drawn) [Example 1, 2-{6-[1-Ethyl-3-(4-trifluoromethoxyphenyl)ureido]-5,6,7,8-tetrahydronaphthalen-2-ylsulfanyl}-2-methylpropionic acid]: the EC50 in assay [1] (setting [4]) worked out at 23 nM. Besides, the change in vivo at 1 mg/kg was -12% in assay [2] (read-out: Δ BW), -73% in assay [2] (read-out: Δ Plasma Glucose), -46% in assay [2] (read-out: Δ Plasma Insulin) and -52% in assay [2] (read-out: Δ Plasma TG).

Turning to `CCCCCCN(C(=O)Nc1ccc(SC(F)(F)F)cc1)C1Cc2ccc(SC(C)(C)C(=O)O)cc2C1` (stereo not drawn) [Example 15, 2-Methyl-2-{2-[1-hexyl-3-(4-trifluoromethylsulfanylphenyl)ureido]indan-5-ylsulfanyl}propionic acid], the EC50 in assay [1] (setting [4]) is 123 nM. Also, the “PPARδ FI” value in assay [3] turned out to be 1.2.

On to `C=CCCCN(C(=O)Nc1ccc(OC(F)(F)F)cc1)C1Cc2ccc(SC(C)(C)C(=O)O)cc2C1` (stereo not drawn) [Example 19, 2-Methy-2-{2-[1-pent-4-enyl-3-(4-trifluoromethoxyphenyl)ureido]indan-5-ylsulfanyl}propionic acid], for which the EC50 in assay [1] (setting [4]) was found to be 125 nM. The “PPARδ FI” value in assay [3] was found to be 1.4.

Take `CCCCN(C(=O)Nc1ccc(OC(F)(F)F)cc1)C1CCc2cc(SC(C)(C)C(=O)O)ccc2C1` (stereo not drawn) [Example 22, 2-{6-[1-Butyl-3-(4-trifluoromethoxyphenyl)ureido]-5,6,7,8-tetrahydronaphthalen-2-ylsulfanyl}-2-methylpropionic acid]: in assay [1] (setting [4]), the EC50 came out at 219 nM.

Consider `CCCCN(C(=O)Nc1ccc(SC(F)(F)F)cc1)C1CCc2cc(SC(C)(C)C(=O)O)ccc2C1` (stereo not drawn) [Example 23, 2-{6-[1-Butyl-3-(4-trifluoromethylsulfanylphenyl)ureido]-5,6,7,8-tetrahydronaphthalen-2-ylsulfanyl}-2-methylpropionic acid], for which the EC50 in assay [1] (setting [4]) is 244 nM.

Take `CCCCCCN(C(=O)Nc1ccc(OC(F)(F)F)cc1)C1CCc2cc(SC(C)(C)C(=O)O)ccc2C1` (stereo not drawn) [Example 24, 2-{6-[1-Hexyl-3-(4-trifluoromethoxyphenyl)ureido]-5,6,7,8-tetrahydronaphthalen-2-ylsulfanyl}-2-methylpropionic acid]: in assay [1] (setting [4]), the EC50 worked out at 235 nM.

`CCN(C(=O)Nc1ccc(OC(F)(F)F)c(Br)c1)C1Cc2ccc(SC(C)(C)C(=O)O)cc2C1` (stereo not drawn) [Example 25, 2-{2-[3-(3-Bromo-4-trifluoromethoxyphenyl)-1-ethylureido]indan-5-ylsulfanyl}-2-methylpropionic acid]: the concentration giving a half-maximal response (EC50) in assay [1] (setting [5]) was 208 nM. For the same molecule, in assay [3], the “PPARδ FI” value stood at 4.5.

As to `CN(C)c1ccc(NC(=O)N(C)C2Cc3ccc(SC(C)(C)C(=O)O)cc3C2)cc1` (stereo not drawn) [Example 27, 2-{2-[3-(4-Dimethylaminophenyl)-1-methylureido]indan-5-ylsulfanyl}-2-methylpropionic acid], the EC50 in assay [1] (setting [5]) was determined as 294 nM.

As for `CCCCCN(C(=O)Nc1ccc2c(c1)CCC2)C1Cc2ccc(SC(C)(C)C(=O)O)cc2C1` (stereo not drawn) [Example 29, 2-[2-(3-Indan-5-yl-1-pentylureido)indan-5-ylsulfanyl}-2-methylpropionic acid], the EC50 in assay [1] (setting [5]) came to 382 nM.

Turning to `CCCCCN(C(=O)Nc1ccc(C)c([N+](=O)[O-])c1)C1Cc2ccc(SC(C)(C)C(=O)O)cc2C1` (stereo not drawn) [Example 30, 2-Methyl-2-{2-[3-(4-methyl-3-nitrophenyl)-1-pentylureido]indan-5-ylsulfanyl} propionic acid], the EC50 in assay [1] (setting [5]) amounted to 385 nM.

As for `CC(C)(Sc1ccc2c(c1)CC(N(Cc1cccc3ccccc13)C(=O)Nc1ccc(OC(F)(F)F)cc1)C2)C(=O)O` (stereo not drawn) [Example 31, 2-Methyl-2-{2-[1-naphthalen-1 ylmethyl-3-(4-trifuoromethoxyphenyl)-ureido]indan-5-ylsulfanyl}-propionic acid], the EC50 in assay [1] (setting [5]) was 497 nM.

On to `COCCN(C(=O)Nc1ccc(SC(F)(F)F)cc1)C1Cc2ccc(SC(C)(C)C(=O)O)cc2C1` (stereo not drawn) [Example 34, 2-{2-[1-(2-Methoxyethyl)-3-(4-trifluoromethylsulfanylphenyl)ureido]indan-5-ylsulfanyl}-2-methylpropionic acid], for which, in assay [1] (setting [5]), the EC50 came to 657 nM.

`CC(C)(Sc1ccc2c(c1)CC(N(CCCC(F)(F)F)C(=O)Nc1ccc(OC(F)(F)F)cc1)C2)C(=O)O` (stereo not drawn) [Example 36, 2-Methyl-2-{2-[1-(4,4,4-trifluorobutyl)-3-(4-trifluoromethoxyphenyl)ureido]indan-5-ylsulfanyl}propionic acid]: the EC50 in assay [1] (setting [5]) was determined as 796 nM.

Consider `COC(=O)CCCCCN(C(=O)Nc1ccc(C(C)C)cc1)C1Cc2ccc(SC(C)(C)C(=O)O)cc2C1` (stereo not drawn) [Example 38, 6-[1-[5-(1-Carboxy-1-methylethylsulfanyl)indan-2-yl]-3-(4-isopropylphenyl)-ureido]hexanoic acid methyl ester], for which the EC50 in assay [1] (setting [5]) is 950 nM.

As to `CC(C)(Sc1ccc2c(c1)CC(N(CC1CCCCC1)C(=O)Nc1ccc(OC(F)(F)F)cc1)C2)C(=O)O` (stereo not drawn) [Example 40, 2-{2-[1-Cyclohexylmethyl-3-(4-trifluoromethoxyphenyl)ureido]indan-5-ylsulfanyl]-2-methylpropionic acid], the EC50 in assay [1] (setting [5]) is 1300 nM.

As to `CC(C)CN(C(=O)Nc1ccc(OC(F)(F)F)cc1)C1Cc2ccc(SC(C)(C)C(=O)O)cc2C1` (stereo not drawn) [Example 41, 2-{2-[1-Isobutyl-3-(4-trifluoromethoxyphenyl)ureido]indan-5-ylsulfanyl}-2-methylpropionic acid], in assay [1] (setting [5]), the EC50 came to 2210 nM.

Turning to `CCCCCCCN(C(=O)Nc1ccc(Cl)c(Cl)c1)C1Cc2ccc(SC(C)(C)C(=O)O)cc2C1` (stereo not drawn) [Example 42, 2-{2-[3-(3,4-Dichlorophenyl)-1-heptylureido]indan-5-ylsulfanyl}-2-methylpropionic acid], in assay [1] (setting [5]), the EC50 was determined as 2340 nM.

Regarding `CN(C)CCN(C(=O)Nc1ccc(SC(F)(F)F)cc1)C1Cc2ccc(SC(C)(C)C(=O)O)cc2C1` (stereo not drawn) [Example 43, 2-{2-[1-(2-Dimethylaminoethyl)-3-(4-trifluoromethylsulfanylphenyl)ureido]indan-5-ylsulfanyl}-2-methylpropionic acid], the EC50 in assay [1] (setting [5]) is 2990 nM.

For the molecule `CCCCCCCN(C(=O)Nc1cccc(Cl)c1)C1Cc2ccc(SC(C)(C)C(=O)O)cc2C1` (stereo not drawn) [Example 44, 2-{2-[3-(3-Chlorophenyl)-1-heptylureido]indan-5-ylsulfanyl}-2-methylpropionic acid], the EC50 in assay [1] (setting [5]) was 2090 nM.

Regarding `CCCCCCCN(C(=O)Nc1ccc(OC(F)(F)F)cc1)C1Cc2ccc(SC3(C(=O)O)CCC3)cc2C1` (stereo not drawn) [Example 45, 1-{2-[1-Heptyl-3-(4-trifluoromethoxyphenyl)ureido]indan-5-ylsulfanyl}-cyclobutanecarboxylic acid], the EC50 in assay [1] (setting [5]) was 780 nM.
